Where two headings read alike, the source gives them in different places.
Experiments:
Test in all cases: Ras GTP binding domain inhibition assay (Cy3-GTP/Cy5-GTP competition)
Rac-1 = Rac-1 (Homo sapiens, UniProt P63000)
Procedure, shortened: (§1)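 Compounds tested at 20 μM or in serial dilution for IC50 against nickel-captured His-tagged GTPase, 3 hours at room temperature, with or without His-Sos GEF added for last hour. Fluorescent GTP then added at 100 nM for 45 minutes; wells washed, bound label measured by fluorescence.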

Rho-A = Rho-A (Homo sapiens, UniProt P61586)
Procedure, shortened: as §1

KRas G12D mutant = biological target: T1, KRas G12D mutant (Homo sapiens, UniProt P01116, G12D); settings: at 20 μM
T1 construct: fused on or other part: His tag, used for capture on nickel-coated plates
Procedure, shortened: as §1

[1] = with SOS, read-out: Rac-1 + SOS: % inh.
[2] = without SOS, read-out: Rac-1: % inh.
[3] = with SOS, read-out: Rho-A + SOS: % inh.
[4] = without SOS, read-out: Rho-A: % inh.
[5] = with SOS, read-out: KRas G12D mutant + SOS: % inh.
[6] = without SOS, read-out: KRas G12D mutant: % inh.

Row | Structure (SMILES) | inhibition at 20 µM (Rac-1; [1]) [%] | inhibition at 20 µM (Rac-1; [2]) [%] | inhibition at 20 µM (Rho-A; [3]) [%] | inhibition at 20 µM (Rho-A; [4]) [%] | inhibition at 20 µM (KRas G12D mutant; [5]) [%] | inhibition at 20 µM (KRas G12D mutant; [6]) [%] | Rac-1 + SOS: % inh. (Rac-1; at 20 μM, with SOS) | Rac-1: % inh. (Rac-1; at 20 μM, without SOS) | Rho-A + SOS: % inh. (Rho-A; at 20 μM, with SOS) | Rho-A: % inh. (Rho-A; at 20 μM, without SOS) | KRas G12D mutant + SOS: % inh. (KRas G12D mutant; with SOS) | KRas G12D mutant: % inh. (KRas G12D mutant; without SOS)
1 | COC1CCN(c2nc(-c3nccn3C)nc3sc(-c4ccn(C)n4)c(-c4ccccc4)c23)CC1 [drawing 991] | 26 to 50 | 26 to 50 | 0 | 0 | 26 to 50 | 26 to 50 |  |  |  |  |  | 
2 | CO[C@H]1CCC(Nc2nc(-c3nccn3C)nc3sc(-c4ccn(C)n4)c(-c4ccccc4)c23)C1 (stereo partly drawn) [drawing 995] | 51 to 75 | 51 to 75 | 76 to 100 | 51 to 75 | 51 to 75 | 1 to 25 |  |  |  |  |  | 
3 | COCCNc1nc(-c2nccn2C)nc2sc(-c3cc(OC)ccc3Cl)c(-c3ccccc3)c12 [drawing 1006] | 26 to 50 | 1 to 25 | 51 to 75 | 1 to 25 | 1 to 25 | 26 to 50 |  |  |  |  |  | 
4 | CCN(CC)C(=O)c1nc(-c2nccn2C)nc(O)c1O [drawing 964] | 1 to 25 | 26 to 50 | 51 to 75 | 26 to 50 | 1 to 25 | 51 to 75 |  |  |  |  |  | 
5 | COCCn1cc(-c2sc3nc(-c4nccn4C)nc(N4CCC(OC)C4)c3c2-c2ccccc2)cn1 (stereo not drawn) [drawing 976] | 51 to 75 | 51 to 75 | 26 to 50 | 26 to 50 | 51 to 75 | 51 to 75 |  |  |  |  |  | 
6 | O=C(c1nc(-c2ccccn2)nc(O)c1O)N1CCCC1 [drawing 966] | 26 to 50 | 26 to 50 | 51 to 75 | 76 to 100 | 1 to 25 | 51 to 75 |  |  |  |  |  | 
7 | COC1CCN(c2nc(-c3nccn3C)nn3cc(-c4ccccc4)c(-c4ccccc4)c23)C1 (stereo not drawn) [drawing 931] | 51 to 75 | 26 to 50 | 26 to 50 | 51 to 75 | 1 to 25 | 26 to 50 |  |  |  |  |  | 
8 | COC1CCN(c2nc(-c3nccn3C)nc3sc(-c4ccccc4CO)c(-c4ccccc4)c23)C1 (stereo not drawn) [drawing 952] | 0 | 0 | 26 to 50 | 0 | 51 to 75 | 51 to 75 |  |  |  |  |  | 
9 | CO[C@H]1CC[C@@H](Nc2nc(-c3ncc[nH]3)nc3sc(-c4ccn(C)n4)c(-c4ccccc4)c23)C1 [drawing 1046] | 51 to 75 | 51 to 75 | 26 to 50 | 51 to 75 | 51 to 75 | 26 to 50 |  |  |  |  |  | 
10 | Cn1ccnc1-c1nc(O)c(O)c(C(=O)NC2CCCC2)n1 [drawing 962] | 51 to 75 | 51 to 75 | 76 to 100 | 26 to 50 | 26 to 50 | 51 to 75 |  |  |  |  |  | 
11 | COCCc1ccc(Oc2nc(-c3ccccn3)nc(O)c2OC)cc1 [drawing 949] | 76 to 100 | 51 to 75 | 76 to 100 | 76 to 100 | 26 to 50 | 51 to 75 |  |  |  |  |  | 
12 | CO[C@H]1C[C@@H](Nc2nc(-c3ncc[nH]3)nc3sc(-c4ccn(C)n4)c(-c4ccccc4)c23)C1 [drawing 1045] | 26 to 50 | 26 to 50 | 26 to 50 | 26 to 50 | 26 to 50 | 26 to 50 |  |  |  |  |  | 
13 | COc1cccc(-c2sc3nc(-c4nccn4C)nc(N4CCC(OC)C4)c3c2-c2ccccc2)c1F (stereo not drawn) [drawing 1025] |  |  |  |  |  |  | B (26-50% inhibition) | B (26-50% inhibition) | B (26-50% inhibition) | B (26-50% inhibition) | C (51-75% inhibition) | A (1-25% inhibition)
14 | CO[C@H]1C[C@@H](Nc2nc(-c3nccn3C)nc3sc(C(=O)N4CCOCC4)c(-c4ccccc4)c23)C1 [drawing 1057] | 76 to 100 | 51 to 75 | 51 to 75 | 51 to 75 | 51 to 75 | 51 to 75 |  |  |  |  |  | 
15 | Cn1ccnc1-c1nc(O)c(O)c(C(=O)N2CCCCC2)n1 [drawing 961] | 1 to 25 | 51 to 75 | 51 to 75 | 26 to 50 | 1 to 25 | 26 to 50 |  |  |  |  |  | 
16 | COCCNc1nc(-c2cn(C)cn2)nc2sc(-c3cccc(OC)c3Cl)c(-c3ccc(OC)cc3)c12 [drawing 932] | 51 to 75 | 51 to 75 | 51 to 75 | 51 to 75 | 26 to 50 | 26 to 50 |  |  |  |  |  | 
17 | O=C(NC1CCCC1)c1nc(-c2ccccn2)nc(O)c1O [drawing 947] | 51 to 75 | 51 to 75 | 51 to 75 | 51 to 75 | 1 to 25 | 51 to 75 |  |  |  |  |  | 
18 | CC(C)NC(=O)c1nc(-c2nccn2C)nc(O)c1O [drawing 965] | 51 to 75 | 51 to 75 | 76 to 100 | 51 to 75 | 26 to 50 | 51 to 75 |  |  |  |  |  | 
19 | COc1ccc(-c2c(-c3cccc(OC)c3F)sc3nc(-c4nccn4C)nc(N4CCC(OC)C4)c23)cc1 (stereo not drawn) [drawing 941] | 0 | 0 | 51 to 75 | 51 to 75 | 51 to 75 | 51 to 75 |  |  |  |  |  | 
20 | COC1CCN(c2nc(-c3nccn3C)nc3sc(-c4ccc(N)nc4C)c(-c4ccccc4)c23)C1 (stereo not drawn) [drawing 953] | 0 | 0 | 26 to 50 | 0 | 1 to 25 | 1 to 25 |  |  |  |  |  | 

Continued, values first:

Row | inhibition at 20 µM (Rac-1; [1]) [%] | inhibition at 20 µM (Rac-1; [2]) [%] | inhibition at 20 µM (Rho-A; [3]) [%] | inhibition at 20 µM (Rho-A; [4]) [%] | inhibition at 20 µM (KRas G12D mutant; [5]) [%] | inhibition at 20 µM (KRas G12D mutant; [6]) [%] | Rac-1 + SOS: % inh. (Rac-1; at 20 μM, with SOS) | Rac-1: % inh. (Rac-1; at 20 μM, without SOS) | Rho-A + SOS: % inh. (Rho-A; at 20 μM, with SOS) | Rho-A: % inh. (Rho-A; at 20 μM, without SOS) | KRas G12D mutant + SOS: % inh. (KRas G12D mutant; with SOS) | KRas G12D mutant: % inh. (KRas G12D mutant; without SOS) | Structure (SMILES)
21 | 26 to 50 | 1 to 25 | 1 to 25 | 1 to 25 | 1 to 25 | 1 to 25 |  |  |  |  |  |  | COc1cccc(-c2csc3c(O)nc(-c4nccn4C)nc23)c1Cl [drawing 1013]
22 | 76 to 100 | 51 to 75 | 76 to 100 | 26 to 50 | 51 to 75 | 51 to 75 |  |  |  |  |  |  | Oc1nc(-c2ncc3n2CCCC3)nc2c(-c3ccccn3)csc12 [drawing 968]
23 | 76 to 100 | 76 to 100 | 76 to 100 | 76 to 100 | 51 to 75 | 76 to 100 |  |  |  |  |  |  | CC(C)COc1ccc(-c2csc3c(O)nc(-c4nccn4Cc4ccccn4)nc23)cn1 [drawing 1034]
24 | 1 to 25 | 1 to 25 | 26 to 50 | 0 | 26 to 50 | 1 to 25 |  |  |  |  |  |  | COCC(C)Nc1nc(-c2nccn2C)nc2sc(-c3ccn(C)n3)c(-c3ccccc3)c12 (stereo not drawn) [drawing 999]
25 | 76 to 100 | 76 to 100 | 76 to 100 | 76 to 100 | 51 to 75 | 51 to 75 |  |  |  |  |  |  | COCCn1ccnc1-c1nc(O)c2scc(-c3ccc(OCC(C)C)nc3)c2n1 [drawing 1033]
26 | 0 | 0 | 1 to 25 | 26 to 50 | 1 to 25 | 1 to 25 |  |  |  |  |  |  | Oc1nc(-c2cn3cccnc3n2)nc2c(-c3ccccn3)csc12 [drawing 983]
27 | 51 to 75 | 51 to 75 | 76 to 100 | 76 to 100 | 26 to 50 | 51 to 75 |  |  |  |  |  |  | COc1c(O)nc(-c2ccccn2)nc1Oc1ccc2ncccc2c1 [drawing 939]
28 | 51 to 75 | 76 to 100 | 51 to 75 | 51 to 75 | 51 to 75 | 76 to 100 |  |  |  |  |  |  | Oc1nc(-c2nccn2Cc2ccccn2)nc2c(-c3ccccn3)csc12 [drawing 986]
29 | 0 | 1 to 25 | 0 | 51 to 75 | 26 to 50 | 26 to 50 |  |  |  |  |  |  | COC1CCN(c2nc(-c3nccn3C)nc3sc(-c4ccncc4C)c(-c4ccccc4)c23)C1 (stereo not drawn) [drawing 955]
30 | 76 to 100 | 51 to 75 | 76 to 100 | 51 to 75 | 51 to 75 | 76 to 100 |  |  |  |  |  |  | Cn1ccnc1-c1nc(O)c2scc(-c3ccccn3)c2n1 [drawing 988]
31 | 51 to 75 | 1 to 25 | 51 to 75 | 51 to 75 | 1 to 25 | 51 to 75 |  |  |  |  |  |  | Cc1cnc(-c2nc(O)c3scc(-c4ccccn4)c3n2)n1C [drawing 943]
32 | 0 | 0 | 0 | 0 | 51 to 75 | 1 to 25 |  |  |  |  |  |  | COC1CCN(c2nc(-c3nccn3C)nc3sc(-c4ccc(CO)cc4)c(-c4ccccc4)c23)C1 (stereo not drawn) [drawing 954]
